From US5464551A, “Stabilized phosphate ester-based functional fluid compositions” (Monsanto Company, priority 1993, dated 1995)

Experiments:
[1] = in vivo; details: chicken
[2] = tested on: Mouse; test: Genotoxicity: mouse micronucleus; details: in vivo
[3] = tested on: Hen; details: in vivo
[4] = in vivo
[5] = in vivo; details: po
[6] = tested on: Bladder
[7] = in vivo; details: topical or ocular
[8] = in vivo; remark: listed apart in the source
[9] = tested on: Ames
[10] = sample as named; W samples fresh

SMILES: CC(C)COP(=O)(OCC(C)C)OCC(C)C [TIBP, triisobutyl phosphate]
- LD50 [1]: > 5000 mg/kg
- Mouse micronucleus [2]: negative
- Hen Neurotox [3]: Not neurotoxic
- Skin Irritation [4]: Moderately irritating
- LD50 [5]: > 5000 mg/kg
- Subchronic Bladder Hyperplasia, level in rats [6]: > 5000 ppm
- NOEL, subchronic bladder hyperplasia ([6]; rats): 5000 ppm
- Subchronic Bladder Hyperplasia, observation ([6]; rats): None observed
- LD50 [7]: > 5000 mg/kg
- Eye Irritation [8]: Practically non-irritating
- Ames [9]: negative

SMILES: CCCCOP(=O)(OCCCC)Oc1ccccc1 [DBPP, dibutyl phenyl phosphate]
- Independent Lab Cond. [10]: 0.008 μMHO/cm
